# Measured values published in the Kinase Knowledgebase extract (Sharma et al. 2016).
# pIC50: −log10 of the molar value.
# How the values were obtained:
# [1] = biological target: EGFR (human), P00533 [L858R]
# [2] = biological target: EGFR (Human), P00533 [T790M/L858R]; settings: baf3
# EGFR (human) = EGFR (human) (UniProt P00533)
# [3] = biological target: EGFR (Human), P00533 [Assessment of EGFR-Del T790M Dependent Cell Proliferation in BaF3 Cells]
# [4] = biological target: EGFR (Human), P00533 [T790M/L858R]
# Sequence of EGFR (human), P00533 [L858R] (P00533 whole entry L858R, looked up): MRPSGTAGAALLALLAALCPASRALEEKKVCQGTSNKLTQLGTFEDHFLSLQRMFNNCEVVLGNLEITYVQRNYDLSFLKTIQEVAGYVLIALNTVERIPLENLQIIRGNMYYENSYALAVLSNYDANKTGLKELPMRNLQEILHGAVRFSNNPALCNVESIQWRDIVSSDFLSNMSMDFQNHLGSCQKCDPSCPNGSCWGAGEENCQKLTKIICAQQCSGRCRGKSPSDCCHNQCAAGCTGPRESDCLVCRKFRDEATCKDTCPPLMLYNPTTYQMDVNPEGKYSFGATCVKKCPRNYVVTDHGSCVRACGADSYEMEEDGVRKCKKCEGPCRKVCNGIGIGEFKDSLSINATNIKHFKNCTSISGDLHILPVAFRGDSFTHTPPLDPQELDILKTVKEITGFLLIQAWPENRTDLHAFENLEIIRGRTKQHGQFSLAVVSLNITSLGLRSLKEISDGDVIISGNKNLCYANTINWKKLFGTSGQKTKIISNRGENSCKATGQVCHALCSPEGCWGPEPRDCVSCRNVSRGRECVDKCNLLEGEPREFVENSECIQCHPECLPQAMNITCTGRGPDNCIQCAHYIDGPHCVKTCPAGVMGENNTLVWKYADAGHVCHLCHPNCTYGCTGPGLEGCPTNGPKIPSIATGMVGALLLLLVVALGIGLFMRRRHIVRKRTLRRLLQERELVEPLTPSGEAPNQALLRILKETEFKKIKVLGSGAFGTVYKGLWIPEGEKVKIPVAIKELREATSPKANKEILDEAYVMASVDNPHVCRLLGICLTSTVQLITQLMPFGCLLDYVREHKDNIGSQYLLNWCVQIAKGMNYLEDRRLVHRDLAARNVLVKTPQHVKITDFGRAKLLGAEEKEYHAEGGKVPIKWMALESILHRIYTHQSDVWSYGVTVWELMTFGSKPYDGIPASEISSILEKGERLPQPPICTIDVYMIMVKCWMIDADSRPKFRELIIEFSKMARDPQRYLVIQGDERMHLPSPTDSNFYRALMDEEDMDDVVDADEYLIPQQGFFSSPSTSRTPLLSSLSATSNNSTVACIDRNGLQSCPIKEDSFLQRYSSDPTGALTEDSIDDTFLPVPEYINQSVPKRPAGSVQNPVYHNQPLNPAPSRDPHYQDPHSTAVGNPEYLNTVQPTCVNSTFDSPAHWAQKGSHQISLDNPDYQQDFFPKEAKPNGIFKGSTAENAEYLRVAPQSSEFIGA
# Sequence of EGFR (human) (P00533 whole entry, looked up): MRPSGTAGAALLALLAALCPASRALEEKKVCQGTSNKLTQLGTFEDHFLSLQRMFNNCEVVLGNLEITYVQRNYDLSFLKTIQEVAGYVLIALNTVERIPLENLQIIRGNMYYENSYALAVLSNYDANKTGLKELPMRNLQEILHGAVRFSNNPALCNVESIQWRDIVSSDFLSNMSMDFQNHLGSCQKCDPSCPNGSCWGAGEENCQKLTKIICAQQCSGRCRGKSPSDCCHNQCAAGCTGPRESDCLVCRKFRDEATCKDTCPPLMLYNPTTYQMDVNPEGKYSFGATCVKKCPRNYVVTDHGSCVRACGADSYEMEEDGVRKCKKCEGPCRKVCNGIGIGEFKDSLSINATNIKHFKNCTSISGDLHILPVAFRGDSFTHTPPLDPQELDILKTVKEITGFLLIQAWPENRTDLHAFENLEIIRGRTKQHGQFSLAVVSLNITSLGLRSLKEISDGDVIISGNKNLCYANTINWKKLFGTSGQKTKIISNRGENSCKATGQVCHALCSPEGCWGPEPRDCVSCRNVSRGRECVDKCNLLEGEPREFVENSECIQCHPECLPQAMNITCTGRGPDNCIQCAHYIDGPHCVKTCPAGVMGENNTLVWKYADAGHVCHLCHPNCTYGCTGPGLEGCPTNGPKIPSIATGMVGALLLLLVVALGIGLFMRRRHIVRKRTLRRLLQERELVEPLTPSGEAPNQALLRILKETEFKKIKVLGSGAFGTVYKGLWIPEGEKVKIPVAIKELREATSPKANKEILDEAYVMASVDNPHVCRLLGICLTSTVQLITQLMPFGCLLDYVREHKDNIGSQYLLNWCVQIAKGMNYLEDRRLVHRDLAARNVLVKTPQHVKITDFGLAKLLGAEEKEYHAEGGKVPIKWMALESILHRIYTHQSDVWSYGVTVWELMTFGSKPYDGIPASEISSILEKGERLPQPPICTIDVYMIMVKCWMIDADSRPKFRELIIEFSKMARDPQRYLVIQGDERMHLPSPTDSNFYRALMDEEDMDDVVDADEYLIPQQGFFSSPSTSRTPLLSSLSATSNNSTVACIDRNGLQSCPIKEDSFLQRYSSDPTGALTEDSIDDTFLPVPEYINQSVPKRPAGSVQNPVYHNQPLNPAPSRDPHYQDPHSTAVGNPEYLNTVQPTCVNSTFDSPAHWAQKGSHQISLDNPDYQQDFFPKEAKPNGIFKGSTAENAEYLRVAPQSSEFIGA
# Sequence of EGFR (Human), P00533 [Assessment of EGFR-Del T790M Dependent Cell Proliferation in BaF3 Cells] (P00533 whole entry, looked up, stated change not applied): as the sequence (P00533 whole entry, looked up) above
# Sequence of EGFR (Human), P00533 [T790M/L858R] (P00533 whole entry T790M/L858R, looked up): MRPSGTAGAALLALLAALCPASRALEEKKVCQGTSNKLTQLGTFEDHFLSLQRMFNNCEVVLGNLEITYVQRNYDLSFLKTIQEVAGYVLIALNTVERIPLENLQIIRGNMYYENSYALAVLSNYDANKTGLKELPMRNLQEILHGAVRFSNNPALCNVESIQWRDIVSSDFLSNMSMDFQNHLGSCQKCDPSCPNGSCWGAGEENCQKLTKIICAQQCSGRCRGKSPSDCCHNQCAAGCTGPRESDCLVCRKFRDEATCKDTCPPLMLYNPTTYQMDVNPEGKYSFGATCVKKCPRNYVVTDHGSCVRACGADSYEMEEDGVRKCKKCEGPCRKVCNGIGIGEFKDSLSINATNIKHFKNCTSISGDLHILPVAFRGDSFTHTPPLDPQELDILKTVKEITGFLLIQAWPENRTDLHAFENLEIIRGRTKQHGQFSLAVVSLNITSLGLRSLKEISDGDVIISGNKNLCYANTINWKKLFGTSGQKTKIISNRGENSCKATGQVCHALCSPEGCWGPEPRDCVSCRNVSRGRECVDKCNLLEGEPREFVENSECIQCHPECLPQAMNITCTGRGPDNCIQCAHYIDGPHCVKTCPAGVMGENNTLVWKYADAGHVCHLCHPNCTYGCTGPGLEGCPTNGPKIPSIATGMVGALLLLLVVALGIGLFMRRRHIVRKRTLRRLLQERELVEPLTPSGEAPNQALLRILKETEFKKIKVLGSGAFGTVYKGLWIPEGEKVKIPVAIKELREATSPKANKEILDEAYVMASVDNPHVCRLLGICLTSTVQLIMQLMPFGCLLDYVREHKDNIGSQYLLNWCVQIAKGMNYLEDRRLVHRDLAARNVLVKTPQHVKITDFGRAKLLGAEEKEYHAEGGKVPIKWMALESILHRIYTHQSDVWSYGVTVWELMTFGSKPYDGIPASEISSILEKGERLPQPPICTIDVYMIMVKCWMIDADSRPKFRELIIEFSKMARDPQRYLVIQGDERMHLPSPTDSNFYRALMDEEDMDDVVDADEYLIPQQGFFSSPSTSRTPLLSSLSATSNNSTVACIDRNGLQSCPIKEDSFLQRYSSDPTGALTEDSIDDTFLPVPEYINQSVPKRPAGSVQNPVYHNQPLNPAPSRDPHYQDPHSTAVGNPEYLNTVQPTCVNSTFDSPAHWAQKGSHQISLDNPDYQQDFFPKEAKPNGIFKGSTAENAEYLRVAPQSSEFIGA
SMILES,pIC50 [1],pIC50 [2],pIC50 (EGFR (human)),pIC50 [3],pIC50 [4]
C=CC(=O)Nc1cc(Nc2ncc(Cl)c(Nc3ccccc3P(C)(C)=O)n2)c(OC)cc1OCC1CCCCN1C (stereo not given),> 7.30,> 7.30,> 7.30,> 7.30,> 7.30
C=CC(=O)Nc1cc(Nc2ncc(Cl)c(Nc3ccccc3P(C)(C)=O)n2)c(OC)cc1OCc1ccncc1,> 7.30,6.60 to 7.00,> 7.30,> 7.30,> 7.30
Cc1ccc(NC(=O)CCl)cc1Nc1ncc(Cl)c(Nc2ccccc2P(C)(C)=O)n1,> 7.30,> 7.30,> 7.30,> 7.30,> 7.30
C=CC(=O)Nc1cc(Nc2ncc(Cl)c(Nc3ccccc3P(C)(C)=O)n2)c(OC)cc1C#CCN(C)C1CCCC1,> 7.30,> 7.30,> 7.30,> 7.30,> 7.30
C=CC(=O)Nc1cc(Nc2ncc(Cl)c(Nc3ccccc3P(C)(C)=O)n2)c(OC)cc1C#CC(C)(C)N,> 7.30,> 7.30,> 7.30,> 7.30,> 7.30
COc1ccc(NC(=O)/C=C/Cl)cc1Nc1ncc(Cl)c(Nc2ccccc2P(C)(C)=O)n1,> 7.30,> 7.30,> 7.30,> 7.30,> 7.30
C=CC(=O)Nc1ccc(CC)c(Nc2ncc(Cl)c(Nc3ccccc3P(C)(C)=O)n2)c1,> 7.30,> 7.30,> 7.30,> 7.30,> 7.30
C=CC(=O)Nc1cc(Nc2ncc(Cl)c(Nc3ccccc3P(C)(C)=O)n2)c(OC)cc1C#CCN1CCCCCC1,> 7.30,> 7.30,> 7.30,> 7.30,> 7.30
C=CC(=O)Nc1cc(Nc2ncc(Cl)c(Nc3ccccc3P(C)(C)=O)n2)c(OC)cc1OCCCN1CCOCC1,> 7.30,6.60 to 7.00,6.60 to 7.00,6.60 to 7.00,> 7.30
C=CC(=O)Nc1cc(Nc2ncc(Cl)c(Nc3ccccc3P(C)(C)=O)n2)c(OC)cc1C#CCN1CCCC1,> 7.30,> 7.30,> 7.30,> 7.30,> 7.30
COc1ccc(NC(=O)C#CCN(C)C)cc1Nc1ncc(Cl)c(Nc2ccccc2P(C)(C)=O)n1,> 7.30,> 7.30,> 7.30,> 7.30,> 7.30
C=CC(=O)Nc1cc(Nc2ncc(Cl)c(Nc3ccccc3P(C)(C)=O)n2)c(OC)cc1C#CCNC,> 7.30,> 7.30,> 7.30,> 7.30,> 7.30
C=CC(=O)Nc1ccc(OC(F)(F)F)c(Nc2ncc(Cl)c(Nc3ccccc3P(C)(C)=O)n2)c1,> 7.30,> 7.30,> 7.30,> 7.30,> 7.30

# Next, values leading:
pIC50 [1],pIC50 [2],pIC50 (EGFR (human)),pIC50 [3],pIC50 [4],SMILES
> 7.30,7.00 to 7.30,> 7.30,> 7.30,> 7.30,CC#CC(=O)Nc1cc(Nc2ncc(Cl)c(Nc3ccccc3P(C)(C)=O)n2)c(OC)cc1N1CCC(N(C)C)C1 (stereo not given)
> 7.30,> 7.30,> 7.30,> 7.30,> 7.30,COc1cc(F)c(NC(=O)C#CC(C)(C)N2CCCC2)cc1Nc1ncc(Cl)c(Nc2ccccc2P(C)(C)=O)n1
> 7.30,6.60 to 7.00,> 7.30,7.00 to 7.30,> 7.30,C=CC(=O)Nc1cc(Nc2ncc(Cl)c(Nc3ccccc3P(C)(C)=O)n2)c(OC)cc1OCCN1CCOCC1
> 7.30,> 7.30,> 7.30,> 7.30,> 7.30,C=CC(=O)Nc1cc(Nc2ncc(Cl)c(Nc3ccccc3P(C)(C)=O)n2)c(OC)cc1N1CCC(N(CC)CC)C1 (stereo not given)
> 7.30,> 7.30,> 7.30,> 7.30,> 7.30,COCC#CC(=O)Nc1ccc(OC)c(Nc2ncc(Cl)c(Nc3ccccc3P(C)(C)=O)n2)c1
> 7.30,6.60 to 7.00,6.60 to 7.00,> 7.30,> 7.30,C=CC(=O)Nc1ccc(Nc2ncc(Cl)c(Nc3cccc(OCCN4CCCCC4)c3P(C)(C)=O)n2)c(OC)c1
> 7.30,> 7.30,> 7.30,> 7.30,> 7.30,C=CC(=O)Nc1cc(Nc2ncc(Cl)c(Nc3ccccc3P(C)(C)=O)n2)c(OC)cc1N1CCC(N(C)CCOC)C1 (stereo not given)
> 7.30,6.60 to 7.00,> 7.30,> 7.30,> 7.30,C=CC(=O)Nc1cc(Nc2ncc(Cl)c(Nc3ccccc3P(C)(C)=O)n2)c(OC)cc1N1CCC(N(C)C)CC1
> 7.30,> 7.30,> 7.30,> 7.30,> 7.30,C=CC(=O)Nc1cc(Nc2ncc(Cl)c(Nc3ccccc3P(C)(C)=O)n2)c(OC)cc1N1CCC(N2CCOCC2)CC1
> 7.30,6.60 to 7.00,> 7.30,7.00 to 7.30,> 7.30,C=CC(=O)Nc1cc(Nc2ncc(Cl)c(Nc3ccccc3P(C)(C)=O)n2)c(OC)cc1N1CCC(N2CCN(C)CC2)C1 (stereo not given)
> 7.30,6.60 to 7.00,> 7.30,> 7.30,> 7.30,C=CC(=O)Nc1cc(Nc2ncc(Cl)c(Nc3ccccc3P(C)(C)=O)n2)c(OC)cc1C#CCN1CCN(C)CC1
> 7.30,> 7.30,> 7.30,> 7.30,> 7.30,C=CC(=O)Nc1cc(Nc2ncc(Cl)c(Nc3ccccc3P(C)(C)=O)n2)c(OC)cc1N1CCCN(C)CC1
> 7.30,> 7.30,> 7.30,> 7.30,> 7.30,C=CC(=O)Nc1cc(Nc2ncc(Cl)c(Nc3ccccc3P(C)(C)=O)n2)c(OC)cc1C#CCN(C(C)C)C(C)C
> 7.30,> 7.30,> 7.30,> 7.30,> 7.30,C=CC(=O)Nc1ccc(OC)c(Nc2ncc(Cl)c(Nc3ccc(OCCCN(C)C)cc3P(C)(C)=O)n2)c1
> 7.30,> 7.30,> 7.30,> 7.30,> 7.30,C=C(CN1CCC(N2CCOCC2)CC1)C(=O)Nc1ccc(OC)c(Nc2ncc(Cl)c(Nc3ccccc3P(C)(C)=O)n2)c1
> 7.30,6.60 to 7.00,7.00 to 7.30,> 7.30,> 7.30,C=CC(=O)Nc1cc(Nc2ncc(Cl)c(Nc3ccccc3P(C)(C)=O)n2)c(OC)cc1N1CCC(N2CCCC2)CC1
> 7.30,6.60 to 7.00,7.00 to 7.30,7.00 to 7.30,> 7.30,C=CC(=O)Nc1cc(Nc2ncc(Cl)c(Nc3ccccc3P(C)(C)=O)n2)c(OC)cc1OCc1cccnc1
> 7.30,> 7.30,> 7.30,> 7.30,> 7.30,C=CC(=O)Nc1cc(Nc2ncc(Cl)c(Nc3ccccc3P(C)(C)=O)n2)c(OC)cc1OC1CCCN(C)C1 (stereo not given)
> 7.30,> 7.30,> 7.30,> 7.30,> 7.30,COc1cc(N2CCOCC2)c(NC(=O)C#CCN(C)C)cc1Nc1ncc(Cl)c(Nc2ccccc2P(C)(C)=O)n1
